Here are results for 3 compounds from US5929099A, “Pharmaceutical composition for inhibiting the growth of cancers” (Procter & Gamble Co., priority 1996, dated 1999).

Series [1] relates to HIV-1 in chronic infected U1 cells (HIV monocytes). The series can be described thus: HIV chronic study, monocyte HIV replication. In kind it is cell-based. To be noted: Human immunodeficiency virus 1, Monocyte; 1 μg/ml; positive control; read-out: suppressed HIV monocytes replication. The method, then: (§1) These cells were treated with test samples.
Series [2] deals with HIV-1 in chronic infected ACH-2 cells (T-cell). The series can be described thus: HIV chronic study, T-cell HIV replication. Type of series: cell-based. To be noted: Human immunodeficiency virus 1, ACH-2; positive control AZT (1 μg/ml); read-out: suppressed T-cell HIV replication. The method, then:
as §1

Series [3] relates to HIV. The series is described as follows: In vitro acute model for HIV, viral replication. In kind it is cell-based. To be noted: Human immunodeficiency virus 1, 1 μg/ml, read-out: inhibited viral replication. The method, then: In an in vitro acute model for HIV carbendazim inhibited viral replication by 100% at 4 μg/ml and AZT inhibited viral replication by 98% at 1 μg/ml. Thiabendazole inhibited viral replication by 98% at 60 μg/ml.

The test system of series [4] is HIV-1. The series can be described thus: HIV chronic study, therapeutic index.
Method: Chronic HIV-1 infected cells U1 were derived from an acute HIV-1 infection of the promonocytic cell line, U937. The chronic HIV-1 infected cells, ACH-2 were derived from an acute HIV-1 infection of the T cell line, A3.01.
These cells were cultured in medium and the phorbol ester, PMA. […] Cell viability was measured when these cell lines were treated with the test compounds.
In addition, the number of institute positive HIV mRNA expressing cells per microscopic field is measured. Comparisons can be made from these numbers since the same number of cells were adhered to the glass slides for each drug concentration (10×10^6 cells/ml).
In series [5] the test system is HT29 colon tumor cells. The series can be described thus: MTT cell viability, colon tumor cells (Table 1). In kind it is cell-based. To be noted: Homo sapiens, HT-29, 120 h, approx. 5 days, read-out: EC-50 Result. On the procedure: (§2) The following cell culture tests were performed to test the toxicity of the benzimidazole compounds on colon, breast and lung human tumor cells. The viability of the cells were tested by looking at MTT (3-[4,5-dimethylthiazol-2-yl]-2,5-diphenyltetrazolium bromide) reduction. MTT assay is a well known measure of cell viability.
(§3) The colon tumor cells (HT29 from American Type Culture Collection (ATCC)) and the breast cells (MX1 from cell lines from ATCC) were cultured in Eagle's Miminal Essential Medium with 10% fetal bovine serum. The lung tumor cells (A549 from ATCC cell lines) were cultured in Ham's F12 medium with 10% fetal bovine serum.
(§4) The tumor cells were passaged and seeded into culture flasks at the desired cell densities. The culture medium was decanted and the cell sheets were washed twice with phosphate buffered saline (PBS). The cells were trypsinized and triturated prior to seeding the flasks. Unless otherwise indicated the cultures were incubated at 37±1° C. in a humidified atmosphere of 5±1% carbon dioxide in air. The cultures were incubated until they were 50-80% confluent.
(§5) The cells were subcultured when the flasks were subconfluent. The medium was aspirated from the flasks and the cell sheets rinsed twice with PBS. Next, the Trypsin Solution was added to each flask to cover the cell sheet. The Trypsin Solution was removed after 30-60 seconds and the flasks were incubated at room temperature for two to six minutes. When 90% of the cells became dislodged, growth medium was added. The cells were removed by trituration and transferred to a sterile centrifuge tube. The concentration of cells in the suspension was determined, and an appropriate dilution was made to obtain a density of 5000 cells/ml. The cells were subcultured into the designated wells of the 96-well bioassay plates (200 microliter cell suspension per well). PBS was added to all the remaining wells to maintain humidity. The plates were then incubated overnight before test article treatment.
(§6) Each dose of test article was tested by treating quadruplicate wells of cultures with 100 microliter of each dilution. Those wells designated as solvent controls received an additional 100 microliter of methanol control; negative controls wells received an additional 100 microliters of treatment medium. PBS was added to the remaining wells not treated with test article or medium. The plates were then incubated for approximately 5 days.
(§7) At the end of the 5 day incubation, each dose group was examined microscopically to assess toxicity. A 0.5 mg/ml dilution of MTT was made in treatment medium, and the dilution was filtered through a 0.45 micrometer filter to remove undissolved crystals. The medium was decanted from the wells of the bioassy plates. Immediately thereafter, […] of the filtered MTT solution was added to all test wells except for the two untreated blank test wells. The two blank wells received 200 microliters of treatment medium. The plates were returned to the incubator for about 3 hours. After incubation, the MTT containing medium was decanted. […] was added to each well and the plates were shaken at room temperature for about 2 hours.
(§8) The absorbance at 550 mn (OD550) of each well was measured with a Molecular Devices (Menlo Park, Calif.) VMax plate reader.
(§9) The mean OD550 of the solvent control wells and that of each test article dilution, and that of each of the blank wells and the positive control were calculated. The mean OD550 of the blank wells was subtracted from the mean of the solvent control wells, and test article wells, respectively to give the corresponding mean OD550. [formula]
(§10) Dose response curves were prepared as semi-log plots with % of control on the ordinate (linear) and the test article concentration on the abscissa (logarithmic). The EC50 was interpolated from the plots for each test article.
(§11) For the test articles administered in methanol, separate responses were prepared to correct for the methanol data. […]

The subject of series [6] is MX1 breast tumor cells. The series can be described thus: MTT cell viability, breast tumor cells (Table 1). To be noted: Homo sapiens, 120 h, approx. 5 days, read-out: EC-50 Result. Type of series: cell-based. The method, then: as §2, §3, §4, §5, §6, §7, §8, §9, §10, §11
In series [7] the test system is A549 lung tumor cells. The series is described as follows: MTT cell viability, lung tumor cells (Table 1). In kind it is cell-based. To be noted: Homo sapiens, A549, 120 h, approx. 5 days, read-out: EC-50 Result. On the procedure:
as §2, §3, §4, §5, §6, §7, §8, §9, §10, §11

Series [8] can be described thus: Toxicity to normal healthy cells (Table 2). In kind it is cell-based. To be noted: read-out: EC-50 (the source's name). The text has this: The EC50 is the concentration at which one half of the cells are killed.
In normal healthy cells, the following results were obtained.

The test system of series [9] is colon, breast and lung human tumor cells. The series can be described thus: Colon, breast and lung tumor cells test, overall comparison. In kind it is cell-based. To be noted: positive control, in all cases. The method, then: as §2, §3
The tumor cells were passaged and seeded into culture flasks at the desired cell densities. The culture medium was decanted and the cell sheets were washed twice with phosphate buffered saline (PBS). The cells were trypsinized and triturated prior to seeding the flasks. […]
The cells were subcultured when the flasks were subconfluent. […] The concentration of cells in the suspension was determined, and an appropriate dilution was made to obtain a density of 5000 cells/ml. […]
as §8
The mean OD550 of the solvent control wells and that of each test article dilution, and that of each of the blank wells and the positive control were calculated. […]

In series [10] the test system is melanoma. The series can be described thus: In vivo mouse model for melanoma, combination with Navelbine, survival time.

≈ marks a conversion by molar mass, not a printed value. Read-outs that look alike come from different tables or passages of the source.

Take `Cc1cn([C@H]2C[C@H](N=[N+]=[N-])[C@@H](CO)O2)c(=O)[nH]c1=O` [AZT]: the inhibition at 1 µg/mL in series [1] stood at 98%; in series [2], 60%; in [3], 98%. The “therapeutic index (TI), the ratio of the toxic dose of drug to efficacious dose of drug” value in [4] is 12, 500.
Regarding `COc1cccc2c1C(=O)c1c(O)c3c(c(O)c1C2=O)C[C@@](O)(C(=O)CO)C[C@@H]3O[C@H]1C[C@H](N)[C@H](O)[C@H](C)O1` [Adriamycin], the IC50 in series [5] (HT29, first column) was 0.03 µg/mL (≈ 0.0552 µM); in series [5] (HT29, second column), 0.006 µg/mL (≈ 0.011 µM); in series [6] (MX1, first column), 0.02 µg/mL (≈ 0.0368 µM); in series [6] (MX1, second column), 0.001 µg/mL (≈ 0.00184 µM); in [7] (A549, first column), 0.03 µg/mL (≈ 0.0552 µM); in [7] (A549, second column), 0.009 µg/mL (≈ 0.0166 µM). Besides, the CC50 in series [8] (bronchial cells, Broncheal Cells, first value) worked out at 0.015 µg/mL (≈ 0.0276 µM); in series [8] (bronchial cells, Broncheal Cells, second value), 0.002 µg/mL (≈ 0.00368 µM); in [8] (fibroblasts, first value), 0.065 µg/mL (≈ 0.12 µM); in series [8] (fibroblasts, second value), 0.1 µg/mL (≈ 0.184 µM); in series [8] (kerotinoyle cells, first value), 0.0035 µg/mL (≈ 0.00644 µM); in series [8] (kerotinoyle cells, second value), 0.0093 µg/mL (≈ 0.0171 µM). The “toxicity relative to the test materials” value in series [9] is given as “more toxic than any of the test materials by one or two logs”.
In the case of `CCC1=C[C@@H]2CN(C1)Cc1c([nH]c3ccccc13)[C@@](C(=O)OC)(c1cc3c(cc1OC)N(C)[C@H]1[C@@](O)(C(=O)OC)[C@H](OC(C)=O)[C@]4(CC)C=CCN5CC[C@]31[C@@H]54)C2` [Navelbine], the “% increase in survival time vs. untreated mice” value is given as 190% in series [10] (Navelbine alone 0.5 mg/kg), 245% in [10] (Navelbine alone 1.0 mg/kg) and 265% in series [10] (Navelbine alone 2.0 mg/kg).
